Experimental data from ChEMBL document CHEMBL3085697, “Design and synthesis of aryl sulfonamide-based nonsteroidal mineralocorticoid receptor antagonists” (Bioorg Med Chem Lett, 2013).

What was measured:
[1] = Apparent intrinsic clearance in human liver microsomes; assay type: ADME; conditions: read-out: CLH(app)
[2] = Lipophilicity, log D of the compound; assay type: physicochemical; conditions: octanol/water
[3] = molecular target: T1, Mineralocorticoid receptor (Homo sapiens, UniProt P08235); experiment: Displacement of [3H]aldosterone from GST-tagged human mineralocorticoid receptor ligand binding domain after 4 hrs by liquid scintillation counting
T1 sequence (P08235 whole entry): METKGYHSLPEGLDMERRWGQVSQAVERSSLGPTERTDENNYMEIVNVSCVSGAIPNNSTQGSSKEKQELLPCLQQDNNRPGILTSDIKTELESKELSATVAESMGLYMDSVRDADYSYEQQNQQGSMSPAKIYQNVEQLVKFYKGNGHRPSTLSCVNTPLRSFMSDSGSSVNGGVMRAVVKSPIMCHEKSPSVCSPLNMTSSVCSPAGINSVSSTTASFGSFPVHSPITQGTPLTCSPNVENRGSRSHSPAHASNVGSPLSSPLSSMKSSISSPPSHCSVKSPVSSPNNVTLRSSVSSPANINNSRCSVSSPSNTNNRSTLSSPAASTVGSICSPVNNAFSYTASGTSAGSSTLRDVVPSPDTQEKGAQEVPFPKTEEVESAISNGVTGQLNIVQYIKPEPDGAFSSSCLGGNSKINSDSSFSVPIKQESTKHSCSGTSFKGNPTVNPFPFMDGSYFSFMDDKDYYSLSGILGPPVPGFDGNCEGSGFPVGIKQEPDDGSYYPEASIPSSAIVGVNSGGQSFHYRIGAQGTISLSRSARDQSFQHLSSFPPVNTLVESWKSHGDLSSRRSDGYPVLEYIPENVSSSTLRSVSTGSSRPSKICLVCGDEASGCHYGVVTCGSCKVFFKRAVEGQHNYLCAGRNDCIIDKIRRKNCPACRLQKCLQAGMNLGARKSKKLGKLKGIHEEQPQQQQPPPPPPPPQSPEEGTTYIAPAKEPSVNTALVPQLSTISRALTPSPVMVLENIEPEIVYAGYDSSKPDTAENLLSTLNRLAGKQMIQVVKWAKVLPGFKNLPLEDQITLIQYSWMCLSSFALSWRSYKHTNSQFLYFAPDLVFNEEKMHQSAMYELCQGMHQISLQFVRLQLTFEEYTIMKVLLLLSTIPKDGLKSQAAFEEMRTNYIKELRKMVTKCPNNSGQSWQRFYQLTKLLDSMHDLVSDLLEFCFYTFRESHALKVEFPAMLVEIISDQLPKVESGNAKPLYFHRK

[4] = Apparent permeability across dog RRCK cells; assay type: ADME, cell-based, Canis lupus familiaris, MDCKII-LE; conditions: MDCK
CYP1A2 = molecular target: T2, CYP1A2 (Homo sapiens, UniProt P05177); experiment: Inhibition of CYP1A2 (unknown origin) at 3 uM; assay type: ADME
T2 sequence (P05177 whole entry): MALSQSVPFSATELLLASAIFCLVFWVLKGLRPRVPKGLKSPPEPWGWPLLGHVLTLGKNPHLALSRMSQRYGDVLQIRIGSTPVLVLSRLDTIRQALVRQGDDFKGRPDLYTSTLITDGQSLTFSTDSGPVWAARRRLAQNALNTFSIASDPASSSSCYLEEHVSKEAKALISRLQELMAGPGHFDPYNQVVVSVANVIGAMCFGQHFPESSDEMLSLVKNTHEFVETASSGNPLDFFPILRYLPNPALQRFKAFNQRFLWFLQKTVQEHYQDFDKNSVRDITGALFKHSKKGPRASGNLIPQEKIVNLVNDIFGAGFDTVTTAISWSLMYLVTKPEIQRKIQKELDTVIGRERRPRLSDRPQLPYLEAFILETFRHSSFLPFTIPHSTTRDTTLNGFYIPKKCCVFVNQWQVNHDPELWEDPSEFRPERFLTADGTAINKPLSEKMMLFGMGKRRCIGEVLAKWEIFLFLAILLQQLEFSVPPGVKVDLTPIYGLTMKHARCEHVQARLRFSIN

Androgen receptor = molecular target: T3, Androgen receptor (Homo sapiens, UniProt P10275); experiment: Antagonist activity at human androgen receptor ligand binding domain expressed in human Huh7 cells after 16 hrs by luciferase reporter gene assay; assay type: cell-based, Huh-7
T3 sequence (P10275 whole entry): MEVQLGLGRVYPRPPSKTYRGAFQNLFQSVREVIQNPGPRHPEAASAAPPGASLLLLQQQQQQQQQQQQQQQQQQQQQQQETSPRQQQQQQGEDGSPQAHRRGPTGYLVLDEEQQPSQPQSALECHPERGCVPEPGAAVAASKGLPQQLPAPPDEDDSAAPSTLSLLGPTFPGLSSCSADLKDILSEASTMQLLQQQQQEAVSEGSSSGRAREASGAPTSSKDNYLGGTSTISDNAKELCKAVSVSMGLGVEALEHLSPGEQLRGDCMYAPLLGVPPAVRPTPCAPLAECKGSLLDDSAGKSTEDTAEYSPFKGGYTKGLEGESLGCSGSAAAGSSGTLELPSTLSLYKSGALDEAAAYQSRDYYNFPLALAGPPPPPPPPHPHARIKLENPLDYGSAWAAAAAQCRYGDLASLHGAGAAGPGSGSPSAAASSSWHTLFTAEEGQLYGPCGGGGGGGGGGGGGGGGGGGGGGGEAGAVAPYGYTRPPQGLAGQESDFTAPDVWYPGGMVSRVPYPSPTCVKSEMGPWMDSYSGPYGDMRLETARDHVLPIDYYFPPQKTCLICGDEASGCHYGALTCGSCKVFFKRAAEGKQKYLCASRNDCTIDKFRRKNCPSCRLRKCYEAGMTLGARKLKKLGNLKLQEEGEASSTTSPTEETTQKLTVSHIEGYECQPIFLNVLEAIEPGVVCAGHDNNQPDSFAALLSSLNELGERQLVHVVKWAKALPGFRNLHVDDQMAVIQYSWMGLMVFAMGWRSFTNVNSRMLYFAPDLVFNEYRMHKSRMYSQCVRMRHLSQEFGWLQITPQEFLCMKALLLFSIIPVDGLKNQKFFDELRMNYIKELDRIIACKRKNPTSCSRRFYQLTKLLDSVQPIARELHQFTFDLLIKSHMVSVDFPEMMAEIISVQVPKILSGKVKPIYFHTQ

Hepatocyte = experiment: Apparent intrinsic clearance in human hepatocytes assessed per million cells; assay type: ADME, cell-based
[5] = molecular target: T1, Mineralocorticoid receptor; experiment: Antagonist activity at human mineralocorticoid receptor ligand binding domain expressed in human Huh7 cells after 16 hrs by luciferase reporter gene assay in absence of serum; assay type: cell-based, Huh-7
CYP2D6 = CYP2D6 (Homo sapiens, UniProt P10635); experiment: Inhibition of CYP2D6 (unknown origin) at 3 uM; assay type: ADME
CYP2C9 = CYP2C9 (Homo sapiens, UniProt P11712); experiment: Inhibition of CYP2C9 (unknown origin) at 3 uM; assay type: ADME
[6] = molecular target: T1, Mineralocorticoid receptor; experiment: Antagonist activity at human mineralocorticoid receptor ligand binding domain expressed in human Huh7 cells after 16 hrs by luciferase reporter gene assay in presence of serum; assay type: cell-based, Huh-7
Progesterone receptor = molecular target: T4, Progesterone receptor (Homo sapiens, UniProt P06401); experiment: Displacement of [3H]progesterone from human His-progesterone receptor B after 4 hrs by liquid scintillation counting
T4 sequence (P06401 whole entry): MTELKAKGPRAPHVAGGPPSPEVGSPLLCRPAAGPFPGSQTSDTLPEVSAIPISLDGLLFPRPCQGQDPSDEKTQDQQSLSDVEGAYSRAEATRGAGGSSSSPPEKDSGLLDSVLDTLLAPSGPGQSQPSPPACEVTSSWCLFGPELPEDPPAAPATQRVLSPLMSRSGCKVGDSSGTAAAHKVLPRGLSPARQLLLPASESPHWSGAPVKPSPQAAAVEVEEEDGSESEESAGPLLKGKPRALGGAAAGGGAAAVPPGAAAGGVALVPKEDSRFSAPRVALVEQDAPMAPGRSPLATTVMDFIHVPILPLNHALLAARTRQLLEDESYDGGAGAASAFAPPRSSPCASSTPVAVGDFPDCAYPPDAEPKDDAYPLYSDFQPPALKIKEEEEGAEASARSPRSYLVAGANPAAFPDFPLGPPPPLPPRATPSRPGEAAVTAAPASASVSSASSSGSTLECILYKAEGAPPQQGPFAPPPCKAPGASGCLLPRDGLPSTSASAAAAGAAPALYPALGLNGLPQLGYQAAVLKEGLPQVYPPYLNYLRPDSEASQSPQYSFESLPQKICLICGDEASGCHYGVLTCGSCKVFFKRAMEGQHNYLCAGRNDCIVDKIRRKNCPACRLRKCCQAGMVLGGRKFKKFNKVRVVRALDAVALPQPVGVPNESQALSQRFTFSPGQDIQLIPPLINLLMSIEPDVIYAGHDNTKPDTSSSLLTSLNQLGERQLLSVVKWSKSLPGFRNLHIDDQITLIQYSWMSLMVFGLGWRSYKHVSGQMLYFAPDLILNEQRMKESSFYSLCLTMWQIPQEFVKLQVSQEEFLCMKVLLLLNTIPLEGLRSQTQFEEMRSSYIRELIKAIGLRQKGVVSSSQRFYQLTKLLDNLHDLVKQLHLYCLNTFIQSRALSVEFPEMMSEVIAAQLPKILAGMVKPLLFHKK

Glucocorticoid receptor = molecular target: T5, Glucocorticoid receptor (Homo sapiens, UniProt P04150); experiment: Displacement of [3H]dexamethasone from GST-tagged human glucocorticoid receptor ligand binding domain after 4 hrs by liquid scintillation counting
T5 sequence (P04150 whole entry): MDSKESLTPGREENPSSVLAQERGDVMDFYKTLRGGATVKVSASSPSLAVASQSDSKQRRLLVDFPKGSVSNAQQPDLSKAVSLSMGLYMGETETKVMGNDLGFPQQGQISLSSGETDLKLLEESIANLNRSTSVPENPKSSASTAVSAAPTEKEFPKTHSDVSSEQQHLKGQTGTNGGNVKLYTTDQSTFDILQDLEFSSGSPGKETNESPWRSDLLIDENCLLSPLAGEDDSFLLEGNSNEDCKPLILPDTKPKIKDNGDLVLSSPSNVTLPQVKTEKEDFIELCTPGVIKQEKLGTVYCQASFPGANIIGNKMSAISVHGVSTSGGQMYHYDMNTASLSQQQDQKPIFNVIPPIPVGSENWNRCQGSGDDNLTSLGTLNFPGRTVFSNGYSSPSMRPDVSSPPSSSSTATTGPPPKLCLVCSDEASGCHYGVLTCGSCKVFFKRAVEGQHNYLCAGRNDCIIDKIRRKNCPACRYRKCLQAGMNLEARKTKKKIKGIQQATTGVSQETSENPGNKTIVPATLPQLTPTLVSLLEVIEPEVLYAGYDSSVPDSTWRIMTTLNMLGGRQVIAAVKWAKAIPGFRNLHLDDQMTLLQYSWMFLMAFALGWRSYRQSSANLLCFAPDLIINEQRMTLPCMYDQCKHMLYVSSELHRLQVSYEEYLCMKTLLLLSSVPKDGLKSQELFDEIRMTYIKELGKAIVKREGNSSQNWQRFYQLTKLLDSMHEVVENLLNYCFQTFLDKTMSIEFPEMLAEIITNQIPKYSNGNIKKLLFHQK

CYP3A4 = CYP3A4 (Homo sapiens, UniProt P08684); experiment: Inhibition of CYP3A4 (unknown origin) at 3 uM; assay type: ADME
Sequence of CYP3A4 (P08684 whole entry): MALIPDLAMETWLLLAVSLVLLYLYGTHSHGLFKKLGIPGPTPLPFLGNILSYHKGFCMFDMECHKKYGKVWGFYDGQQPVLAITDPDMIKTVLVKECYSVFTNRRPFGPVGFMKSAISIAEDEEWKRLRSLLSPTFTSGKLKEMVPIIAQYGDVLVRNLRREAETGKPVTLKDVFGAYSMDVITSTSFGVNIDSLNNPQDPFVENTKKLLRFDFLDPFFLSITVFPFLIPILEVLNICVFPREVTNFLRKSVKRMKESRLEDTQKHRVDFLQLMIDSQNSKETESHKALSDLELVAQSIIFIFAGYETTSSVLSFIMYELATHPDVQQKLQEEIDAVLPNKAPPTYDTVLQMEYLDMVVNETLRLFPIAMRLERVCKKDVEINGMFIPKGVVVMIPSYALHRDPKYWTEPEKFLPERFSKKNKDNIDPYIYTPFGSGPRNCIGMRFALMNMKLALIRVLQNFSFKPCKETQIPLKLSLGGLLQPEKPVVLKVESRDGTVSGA

Sequence of CYP2D6 (P10635 whole entry): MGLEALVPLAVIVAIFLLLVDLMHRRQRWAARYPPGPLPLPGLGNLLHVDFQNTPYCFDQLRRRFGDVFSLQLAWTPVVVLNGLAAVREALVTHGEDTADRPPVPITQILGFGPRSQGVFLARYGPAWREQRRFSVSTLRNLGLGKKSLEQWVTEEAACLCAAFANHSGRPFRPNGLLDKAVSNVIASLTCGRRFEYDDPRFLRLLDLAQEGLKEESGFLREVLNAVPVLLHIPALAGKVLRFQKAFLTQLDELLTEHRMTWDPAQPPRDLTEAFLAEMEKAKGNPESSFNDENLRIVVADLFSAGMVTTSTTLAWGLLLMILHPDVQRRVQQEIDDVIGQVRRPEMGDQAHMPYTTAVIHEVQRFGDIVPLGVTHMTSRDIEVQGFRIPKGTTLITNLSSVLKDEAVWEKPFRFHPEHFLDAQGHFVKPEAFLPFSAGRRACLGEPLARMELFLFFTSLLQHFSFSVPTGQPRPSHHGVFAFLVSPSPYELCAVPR
Sequence of CYP2C9 (P11712 whole entry, the tested form may be a part): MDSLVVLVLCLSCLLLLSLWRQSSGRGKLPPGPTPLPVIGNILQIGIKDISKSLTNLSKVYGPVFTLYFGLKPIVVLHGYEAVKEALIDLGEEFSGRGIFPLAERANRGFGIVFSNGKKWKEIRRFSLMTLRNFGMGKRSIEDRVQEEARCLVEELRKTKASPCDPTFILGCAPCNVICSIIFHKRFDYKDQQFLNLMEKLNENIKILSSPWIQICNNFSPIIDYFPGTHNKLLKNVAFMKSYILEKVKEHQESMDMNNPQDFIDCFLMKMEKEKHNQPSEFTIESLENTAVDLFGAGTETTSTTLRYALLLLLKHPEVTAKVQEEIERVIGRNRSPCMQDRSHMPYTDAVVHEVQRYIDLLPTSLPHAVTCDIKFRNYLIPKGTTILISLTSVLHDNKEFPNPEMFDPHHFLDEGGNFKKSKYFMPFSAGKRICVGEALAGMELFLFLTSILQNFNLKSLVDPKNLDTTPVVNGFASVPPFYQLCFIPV

SMILES | microsomal CLint [1] | logD [2] | IC50 [3] | further results
Cc1noc(C)c1S(=O)(=O)NCc1ccc(-c2ccccc2)cc1 | 203 µL/min/mg | 4.1 | 356 nM | –
Cc1noc(C)c1S(=O)(=O)NCc1ccc(-c2ccccc2)s1 | 267 µL/min/mg | 3.9 | 609 nM | –
Cc1noc(C)c1S(=O)(=O)NCc1ccc(-c2cccc(C#N)c2)cc1 | – | 3.3 | 40 nM | –
COc1ccc(C#N)cc1-c1ccc(CNS(=O)(=O)c2c(C)noc2C)cc1 | 198 µL/min/mg | 3.2 | 45 nM | –
Cc1noc(C)c1S(=O)(=O)NCc1ccc(-c2cccc(C(N)=O)c2)cc1 | – | 2.4 | 2030 nM | –
Cc1noc(C)c1S(=O)(=O)NCc1ccc(-c2cccc(NS(C)(=O)=O)c2)cc1 | 39 µL/min/mg | 2.9 | 1390 nM | –
Cc1noc(C)c1S(=O)(=O)NCc1ccc(-c2cccnc2)cc1 | 86 µL/min/mg | 2.4 | 1530 nM | –
Cc1noc(C)c1S(=O)(=O)NCc1ccc(-c2cncc(C#N)c2)cc1 | 25 µL/min/mg | 1.9 | 1970 nM | –
Cc1noc(C)c1S(=O)(=O)NCc1ccc(-n2ccnc2C)cc1 | 17 µL/min/mg | 1.5 | 4700 nM | –
Cc1cc(C)c(S(=O)(=O)NCc2ccc(-n3ccnc3C)cc2)c(C)c1 | > 320 µL/min/mg | 3.2 | 121 nM | –
Cc1ccccc1S(=O)(=O)NCc1ccc(-n2ccnc2C)cc1 | 53 µL/min/mg | 2.3 | 1210 nM | –
Cc1nccn1-c1ccc(CNS(=O)(=O)c2ccccc2Cl)cc1 | 41 µL/min/mg | 2 | 342 nM | –
Cc1nccn1-c1ccc(CNS(=O)(=O)c2ccccc2F)cc1 | 18 µL/min/mg | 1.8 | 1840 nM | –
Cc1nccn1-c1ccc(CNS(=O)(=O)c2ccc(F)cc2F)cc1 | 28 µL/min/mg | 2 | 2090 nM | –
Cc1nccn1-c1ccc(CNS(=O)(=O)c2cc(F)ccc2F)cc1 | 30 µL/min/mg | 2.1 | 627 nM | –
Cc1nccn1-c1ccc(CNS(=O)(=O)c2cc(F)ccc2F)cc1F | 49 µL/min/mg | 2.4 | 168 nM | –
Cc1cn(-c2ccc(CNS(=O)(=O)c3cc(F)ccc3F)cc2)c(C)n1 | 27 µL/min/mg | 2.3 | 191 nM | Papp [4]: 15.4 ×10⁻⁶ cm/s; inhibition at 3 µM (CYP1A2): < 5%; IC50 (Androgen receptor): > 10000 nM; CLH(app) (Hepatocyte): 9.6 µL/min; IC50 [5]: 556 nM; inhibition at 3 µM (CYP2D6): < 5%; Ki [3]: 113 nM; inhibition at 3 µM (CYP2C9): < 5%; IC50 [6]: 1310 nM; IC50 (Progesterone receptor): > 9210 nM; IC50 (Glucocorticoid receptor): 2190 nM; inhibition at 3 µM (CYP3A4): < 5%
